# Laboratory results taken from US4792559A, “1,2,3,4-tetrahydroquinoline substituted 5-aminopentanenitrile compounds and their use as calcium modulators” (ADIR et Compagnie, priority 1985, dated 1988).
# Like-named read-outs stand apart in the source and are kept apart here.
# Experiments:
# aorta [1] = assay: Isolated rat aorta rings stimulated with noradrenaline (10^-6 M), relaxation; parameters: species or system rat (male Wistar); details: read-out: AORTA St:NA IC50
# Description: (§1) a. Study of isolated organs removed from rats
# (§2) Male Wistar rats weighing from 350 to 400 g are used.
# (§3) After rapid sacrifice of the animal, the following are removed:
# (§4) the aorta, dissected and prepared in rings; after an equilibration period of 1 hour in the reference physiological solution (1), the prepared specimens are stimulated with a solution rich in potassium (K^+) (100 mM) or with noradrenaline (NA) (10^-6 M).
# (§5) The substances to be tested are then added (test sample 0.2 ml) in cumulative doses every 15 minutes.
# (§6) The relaxation values obtained permit an activity-dose curve to be constructed, enabling the IC50 to be calculated in M.
# (§7) The characteristics of the solutions used are as follows: […]
# aorta [2] = assay: Isolated rat aorta rings stimulated with potassium-rich solution (K+ 100 mM), relaxation; parameters: species or system rat (male Wistar); details: Rattus norvegicus, aorta rings stimulated with K+ 100 mM; read-out: AORTA St:K+ IC50
# Description: as §1, §2, §3, §4, §5, §6, §7
# dogs = assay: Haemodynamic study in anaesthetised dogs; format: in vivo, mongrel dogs; details: for dP/dt: Left ventricular pressure derivative, variation: measured at 20 minutes
# Description: A haemodynamic study was carried out on mongrel dogs weighing from 25 to 30 kg, which were anaesthetised with sodium pentobarbital in a dose of 30 mg/kg i.v., intubated and ventilated, and subjected to a thoracotomy at the 5th left intercostal space.
# The left and aortal ventricular pressures are measured by means of MILLAR probes introduced by the femoral artery route. The cardiac frequency is measured by Biotach Gould ECG (derivation D2); the gases of the aortal blood and of the coronary sinus are analysed by an ABL3 radiometer.
# The products tested were injected by the femoral vein route.
# left auricle / aorta = assay: Evaluation of myocardium/vessel selectivity (IC50 LA/IC50 aorta); parameters: species or system rat (male Wistar); details: IC50 LA/IC50 aorta; high values indicate vascular selectivity
# From the text: c. Evaluation of myocardium/vessel selectivity
# The IC50 LA/IC50 aorta ratio leads to a first evaluation; the high values indicate vascular selectivity.
# right auricle (RA) = assay: Isolated right auricle, chronotropic effect; parameters: species or system rat (male Wistar); details: Rattus norvegicus
# Description: as §1, §2
# (§8) the right auricle (RA) and left auricle (LA) RA beats spontaneously.
# (§9) Stabilisation is obtained in physiological liquid (2) after 30 minutes.
# (§10) The substances to be tested are then added (test sample 0.2 ml) in cumulative doses every 15 minutes. The effects on RA are chronotropic. The effects on LA are inotropic. The construction of the activity-dose curves enables the IC50, expressed in M, to be measured.
# calmodulin = calmodulin (Homo sapiens, UniProt P0DP23); assay: Calcium calmodulin binding, fluorescence of dansylated calmodulin; details: for Kd/IC50 AORTA K+: close to 1 indicates vascular inhibition through calmodulin; for Kd: extrapolated to 0 calmodulin, read-out: Kd (cam)
# Description: b. Fixation on calcium calmodulin binding
# The orientations of synthesis which may lead to possibilities of inhibiting calmodulin are evaluated by measuring the fluorescence of dansylated calmodulin.
# The substances to be tested are added to the experimental vessel (2 ml). The increase in fluorescence of dansylated calmodulin enables effect-dose curves to be constructed; measuring the EC50 gives an apparent Kd value. After extrapolation of the apparent Kd values to 0 calmodulin, the experiments carried out for different calcium-calmodulin concentration values enable the characteristic Kd values of the tested substances to be determined (Method proposed by Johnson and Wittenauer, 1983, Biochem., 211, 473-479).
# d. Evaluation of the possibility of inhibition at the calmodulin level
# left auricle (LA) = assay: Isolated left auricle, inotropic effect; parameters: species or system rat (male Wistar); details: Rattus norvegicus; stimulated electrically at 3 Hz
# Description: as §1, §2, §8
# LA is stimulated electrically at a rate of 3 Hz (180 beats per min.) (amplitude of the stimulations: threshold×2).
# as §9, §10
# [3] = tested on: aorta artery of the rat without endothelium; assay: Contraction of rat aorta without endothelium by ionophore calcium A 23187; details: A 23187 at 5.10^-6 M
# [4] = spontaneously beating, read-out: RIGHT AURICLE (RA) (CHRONOTROPIC EFFECT) IC50
Structure (SMILES),IC50 (aorta [1]) [nM],IC50 (aorta [2]) [nM],"AAP: Average arterial pressure, maximum variation (dogs; IV 300 μg/kg) [%]","ACF: Average coronary flow, maximum variation (dogs; IV 300 μg/kg)","CF: Cardiac frequency, maximum variation (dogs; IV 300 μg/kg) [%]","I/C: Myocardial O2 intake/consumption ratio, maximum variation (dogs; IV 300 μg/kg)","PO2 SC: PO2 coronary blood sinus, maximum variation (dogs; IV 300 μg/kg)","PR: PR space of the ECG, maximum variation (dogs; IV 300 μg/kg)","dP/dt: Left ventricular pressure derivative, variation (dogs; IV 300 μg/kg) [%]",LA/AORTA SELECTIVITY (St:K+) (left auricle / aorta),IC50 (right auricle (RA); [4]) [nM],Kd/IC50 AORTA K+ (calmodulin),Kd (calmodulin) [nM],IC50 (left auricle (LA)) [nM],"AAP: Average arterial pressure, maximum variation (dogs; IV 100 μg/kg) [%]","ACF: Average coronary flow, maximum variation (dogs; IV 100 μg/kg)","CF: Cardiac frequency, maximum variation (dogs; IV 100 μg/kg) [%]","PO2 SC: PO2 coronary blood sinus, maximum variation (dogs; IV 100 μg/kg)","PR: PR space of the ECG, maximum variation (dogs; IV 100 μg/kg)","dP/dt: Left ventricular pressure derivative, variation (dogs; IV 100 μg/kg) [%]",other results
"COc1ccc(C(C#N)(CCCN(C)CCc2ccc(OC)c3c2CCCN3C(C)=O)C(C)C)cc1OC (centres unmarked) [Example 4, 2-(3,4-dimethoxyphenyl)-2-isopropyl-5-{N-[(1-acetyl-8-methoxy-1,2,3,4-tetrahydroquinol-5-yl)ethyl]-N-methyl-amino}-pentanenitrile]",13000,600,-14,+84%,-17,+83%,+47%,+27%,-2,13,1500,10.8,6500,8000,–,–,–,–,–,–,–
"COc1ccc(C(C#N)(CCCN(C)CCc2ccc(OC)c3c2CCCN3C(C)=O)Sc2ccccc2)cc1OC (centres unmarked) [Example 7, 2-(3,4-dimethoxyphenyl)-2-phenylthio-5-{N-[(1-acetyl-8-methoxy-1,2,3,4-tetrahydroquinol-5-yl)ethyl]-N-methyl-amino}-pentanenitrile]",3000,360,-16,+77%,-7,+52%,+36%,+15%,0,15,2900,0.66,240,5500,–,–,–,–,–,–,"AAP: Average arterial pressure, maximum variation (dogs; IV 1000 μg/kg): -36%; ACF: Average coronary flow, maximum variation (dogs; IV 1000 μg/kg): +132%; CF: Cardiac frequency, maximum variation (dogs; IV 1000 μg/kg): -11%; I/C: Myocardial O2 intake/consumption ratio, maximum variation (dogs; IV 1000 μg/kg): +107%; PO2 SC: PO2 coronary blood sinus, maximum variation (dogs; IV 1000 μg/kg): +49%; PR: PR space of the ECG, maximum variation (dogs; IV 1000 μg/kg): +37%; dP/dt: Left ventricular pressure derivative, variation (dogs; IV 1000 μg/kg): -3%; negative inotropic effect / cardiotropic effect (dogs; i.v., compared with Verapamil): absence of a negative inotropic effect; percentage increase in the PR duration (dogs; i.v., compared with Verapamil): reduction in the percentage increase in the PR duration; mechanism indicated by the pharmacological effects (calmodulin; in vitro): intracellular inhibitory mechanisms and, especially, a calcium-calmodulin inhibition mechanism"
"COc1cccc(C(C#N)(CCCN(C)CCc2ccc(OC)c3c2CCCN3C(C)=O)C(C)C)c1 (centres unmarked) [Example 13, 2-(3-methoxyphenyl)-2-isopropyl-5-{N-[(1-acetyl-8-methoxy-1,2,3,4-tetrahydroquinol-5-yl)ethyl]-N-methyl-amino}-pentanenitrile]",30000,250,-23,–,-15,+99%,+59%,+32%,-6,20,1000,97,34000,5200,-10,+42%,-11,+40%,+10%,0,"I/C: Myocardial O2 intake/consumption ratio, maximum variation (dogs; IV 100 μg/kg): +45%"
"COc1ccc(CCN(C)CCCC(C#N)(c2ccc(OC)c(OC)c2)C(C)C)cc1OC (centres unmarked) [Verapamil, verapamil, reference compound]",14000,800,-21,+99%,-8,–,+71%,+40%,-13,–,–,–,–,2000,-16,+87%,-9,+42%,+14%,-5,"AAP: Average arterial pressure, maximum variation (dogs; IV 30 μg/kg): -5%; ACF: Average coronary flow, maximum variation (dogs; IV 30 μg/kg): +32%; CF: Cardiac frequency, maximum variation (dogs; IV 30 μg/kg): -4%; PO2 SC: PO2 coronary blood sinus, maximum variation (dogs; IV 30 μg/kg): +18%; PR: PR space of the ECG, maximum variation (dogs; IV 30 μg/kg): +6%; IC50 (right auricle (RA); read-out: RIGHT AURICLE (RA) (CH[…]) IC50): 2000 nM; activity on contraction by ionophore calcium A 23187 [3]: inactive"
